Data as given in patent US7803930B2, “Antisense modulation of apolipoprotein B-expression” (Isis Pharmaceuticals, Inc., priority 2002, dated 2010).
In the oligonucleotide strings, read from the 5' end, every base follows the letter of its sugar. An asterisk marks phosphorothioate; unmarked linkages are phosphodiester. Other units and linkages are bracketed, terminal groups are in braces. A string of capitals states the bases alone. e = 2'-O-(2-methoxyethyl) (MOE); [5mC] = 5-methylcytosine; d = 2'-deoxy (DNA)

Tested on: human apolipoprotein B mRNA
Assay: Inhibition of human apolipoprotein B mRNA levels in HepG2 cells, quantitative real-time PCR
Format: cell-based
Conditions: for % INHIB (inhibition of human apolipoprotein B mRNA levels): HepG2 cells treated with 150 nM of compound, quantitative real-time PCR; for % Change in apolipoprotein B mRNA expression: 24 hour (Table 40)
Procedure, shortened: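 Apolipoprotein B transcript was quantified by one-step TaqMan RT-PCR, normalized to GAPDH or RiboGreen RNA, and expressed as percent inhibition against an untreated-sample standard curve. HepG2 cells were harvested 16-24 h after oligonucleotide exposure, which was delivered with 3.75 μg/mL Lipofectin over 4-7 h at 80% confluency.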

[1] = HepG2 cells, human apolipoprotein B mRNA, oligonucleotides targeting genomic sequence SEQ ID NO 334, averages from two experiments
[2] = Table 15, HepG2 cells, 150 nM, averages from two experiments
[3] = Table 1, HepG2 cells, 150 nM, averages from two experiments

In the case of “301106 (antisense eA*eA*eA*eG*eA*dA*dA*d[5mC]*dT*dA*dT*d[5mC]*d[5mC]*dT*dG*eT*eA*eT*eT*e[5mC]) [compound 301106]”, the “% INHIB” value [1] is reported as 12%.
With “281633 (antisense eG*eA*eT*eT*e[5mC]*dT*dG*dA*dT*dT*dT*dG*dG*dT*dA*e[5mC]*eT*eT*eA*eG) [compound 281633]” the “% INHIB (inhibition of human apolipoprotein B mRNA levels)” value (averages from two experiments) was 73%.
With “308610 (eA*e[5mC]*e[5mC]*eA*eG*d[5mC]*d[5mC]*dA*d[5mC]*dA*dT*dG*d[5mC]*dA*dG*e[5mC]*eT*eT*e[5mC]*eA; antisense) [compound 308610]” the “% INHIB 50 nm” value (Table 11 gene walk, HepG2 cells, 50 nM, averages from two experiments) was 40% and the “% INHIB 150 nm” value (Table 11 gene walk, HepG2 cells, 150 nM, averages from two experiments) was 90%.
In the case of “270985 (antisense eT*eT*e[5mC]*e[5mC]*eT*d[5mC]*dT*dT*d[5mC]*dG*dG*d[5mC]*d[5mC]*d[5mC]*dT*eG*eG*e[5mC]*eG*e[5mC]) [compound 270985]”, the “% INHIB (inhibition of human apolipoprotein B mRNA levels)” value (averages from two experiments) is reported as 75%.
For “301094 (antisense eA*e[5mC]*eT*e[5mC]*eA*dA*dT*dA*dT*dA*dT*dA*dT*dT*d[5mC]*eA*eT*eT*eG*eA) [compound 301094]”, the “% INHIB” value [1] was 22%.
In the case of “301221 (antisense e[5mC]*eT*eA*eG*eA*dG*dG*dT*dT*dT*dT*dG*d[5mC]*dT*dG*eT*eG*e[5mC]*e[5mC]*eA) [compound 301221]”, the “% INHIB” value [2] is reported as 61%.
With “301193 (antisense eA*eG*e[5mC]*eT*e[5mC]*dA*dT*dT*dG*d[5mC]*d[5mC]*dT*dA*d[5mC]*dA*eA*eA*eA*eT*eG) [compound 301193]” the “% INHIB” value [1] was 31%.
With “271018 (antisense eA*eT*eG*eT*eG*dA*dA*dA*d[5mC]*dT*dT*dG*dT*d[5mC]*dT*e[5mC]*eT*e[5mC]*e[5mC]*e[5mC]) [compound 271018]” the “% INHIB (inhibition of human apolipoprotein B mRNA levels)” value (averages from two experiments) was 44%.
“147829 (antisense eT*eA*eT*eA*eT*d[5mC]*d[5mC]*d[5mC]*dA*dG*dG*dT*dT*dT*d[5mC]*e[5mC]*e[5mC]*e[5mC]*eG*eG) [compound 147829]” was tested, and the “% INHIB” value [3] was 64%.
In the case of “308644 (antisense GCCTCAGTCTGCTTCGCACC; 3-10-7 2'-MOE gapmer, phosphorothioate, chemistry not fully specified) [compound 308644]”, the “% INHIB 50 nm” value (HepG2 cells, 50 nm oligonucleotide, variable deoxy gap position) is reported as 71% and the “% INHIB 150 nm” value (HepG2 cells, 150 nm oligonucleotide, variable deoxy gap position) is reported as 93%.
“301212 (antisense eT*eT*eG*eA*eT*dG*dT*dA*dT*d[5mC]*dT*d[5mC]*dA*dT*d[5mC]*eT*eA*eG*e[5mC]*eA) [compound 301212]” was tested, and the “% INHIB” value [1] was 41%.
For “147807 (antisense eG*eG*e[5mC]*eG*eT*dA*dG*dA*dG*dA*d[5mC]*d[5mC]*d[5mC]*dA*dT*e[5mC]*eA*e[5mC]*eA*eT) [compound 147807]”, the “% INHIB” value [3] was 25%.
“301097 (antisense eG*eG*eT*eA*eG*d[5mC]*d[5mC]*dA*dG*dA*dA*d[5mC]*dA*d[5mC]*d[5mC]*eA*eG*eT*eG*eT) [compound 301097]” was tested, and the “% INHIB” value [1] was 50%.
In the case of “301143 (eT*eT*eA*e[5mC]*e[5mC]*dA*dT*dA*dT*d[5mC]*d[5mC]*dT*dG*dA*dG*eA*eG*eT*eT*eT; antisense) [compound 301143]”, the “% INHIB” value [1] is reported as 55%.
In the case of “301048 (eT*eT*e[5mC]*e[5mC]*eT*d[5mC]*d[5mC]*dT*d[5mC]*d[5mC]*d[5mC]*d[5mC]*d[5mC]*dA*dA*eG*eT*eT*eT*eA; antisense) [compound 301048]”, the “% INHIB (inhibition of human apolipoprotein B mRNA levels)” value (averages from two experiments) is reported as 67%.
With “147820 (antisense eG*eA*eA*e[5mC]*eA*d[5mC]*dA*dT*dA*dG*d[5mC]*d[5mC]*dG*dA*dA*eT*eG*e[5mC]*e[5mC]*eG) [compound 147820]” the “% INHIB” value [3] was 100%, the “Percent Inhibition 50 nM” value (Table 2, HepG2 cells, 50 nM) was 10% and the “Percent Inhibition 150 nM” value (Table 2, HepG2 cells, 150 nM) was 0%. For the same substance, the “Percent Inhibition 250 nM” value (Table 2, HepG2 cells, 250 nM) was 73%.
For “147790 (antisense eT*eG*eT*eG*e[5mC]*dT*dA*d[5mC]*d[5mC]*dA*dT*d[5mC]*d[5mC]*d[5mC]*dA*eT*eA*e[5mC]*eT*eT) [compound 147790]”, the “% INHIB” value [3] was 33%.
“301092 (antisense e[5mC]*eA*eT*eG*eA*d[5mC]*d[5mC]*dT*dA*d[5mC]*dT*dT*dG*dT*dA*eG*eG*eA*eG*eA) [compound 301092]” was tested, and the “% INHIB” value [1] was 22%.
For “271004 (antisense eG*e[5mC]*eT*e[5mC]*e[5mC]*dT*d[5mC]*dT*d[5mC]*d[5mC]*d[5mC]*dA*dA*dG*dA*eT*eG*e[5mC]*eG*eG) [compound 271004]”, the “% INHIB (inhibition of human apolipoprotein B mRNA levels)” value (averages from two experiments) was 10%.
“301036 (eT*eT*eT*eG*eG*dT*dG*d[5mC]*dA*dG*dG*dT*d[5mC]*d[5mC]*dA*eG*eT*eT*e[5mC]*eA; antisense) [compound 301036]” was tested, and the “% INHIB (inhibition of human apolipoprotein B mRNA levels)” value (averages from two experiments) was 88%, the “% inhibition 37 nM” value (Table 19 dose response, HepG2 cells, 37 nM, normalized to untreated control) was 67% and the “% inhibition 75 nM” value (Table 19 dose response, HepG2 cells, 75 nM, normalized to untreated control) was 83%. For the same substance, the “% inhibition 150 nM” value (Table 19 dose response, HepG2 cells, 150 nM, normalized to untreated control) was 92% and the “% inhibition 300 nM” value (Table 19 dose response, HepG2 cells, 300 nM, normalized to untreated control) was 95%.
With “301165 (antisense eA*e[5mC]*eT*e[5mC]*e[5mC]*dT*dT*dT*d[5mC]*dT*dA*dT*dA*d[5mC]*d[5mC]*eT*eG*eG*e[5mC]*eT) [compound 301165]” the “% INHIB” value [1] was 47%.
In the case of “147796 (antisense eG*e[5mC]*eA*eG*e[5mC]*d[5mC]*dA*dG*dT*d[5mC]*dG*d[5mC]*dT*dT*dA*eT*e[5mC]*eT*e[5mC]*e[5mC]) [compound 147796]”, the “% INHIB” value [3] is reported as 8%.
With “332774 (antisense GCCTCATTATTATTAGCACC; sugars from the 5' end e5 d10 e5, all phosphorothioate, methylation of C not given here) [compound 332774]” the “% Change in apolipoprotein B mRNA expression” value (HepG2 cells, 50 nM) was “+62%” and the “% Change in apolipoprotein B mRNA expression” value (HepG2 cells, 150 nM) was “+66%”.
For “271007 (antisense e[5mC]*eT*eG*eA*eG*d[5mC]*dA*dG*d[5mC]*dT*dT*dG*dA*d[5mC]*dT*eG*eG*eT*e[5mC]*eT) [compound 271007]”, the “% INHIB (inhibition of human apolipoprotein B mRNA levels)” value (averages from two experiments) was 26%.
For “301032 (e[5mC]*eT*eA*e[5mC]*eT*dG*d[5mC]*dA*dA*dG*dG*d[5mC]*dT*dG*dG*e[5mC]*eT*e[5mC]*eA*e[5mC]; antisense) [compound 301032]”, the “% INHIB (inhibition of human apolipoprotein B mRNA levels)” value (averages from two experiments) was 63%.
With “301219 (antisense eG*e[5mC]*e[5mC]*eA*eG*dA*dA*d[5mC]*dA*dT*dT*dT*dT*dA*dT*e[5mC]*eA*eA*eT*eG) [compound 301219]” the “% INHIB” value [2] was 35%.
“271024 (eG*e[5mC]*eT*e[5mC]*eA*d[5mC]*dT*dG*dT*dT*d[5mC]*dA*dG*d[5mC]*dA*eT*e[5mC]*eT*eG*eG; antisense) [compound 271024]” was tested, and the “% INHIB” value (Table 12, HepG2 cells, 150 nM, averages from two experiments) was 27%.
In the case of “308630 (GCCTCAGTCTGCTTCGCGCC; 0-10-10 MOE gapmer, phosphorothioate, chemistry not fully specified) [compound 308630]”, the “% INHIB 50 nm” value (Table 17 variable gap, HepG2 cells, 50 nM, averages from three experiments) is reported as 69% and the “% INHIB 150 nm” value (Table 17 variable gap, HepG2 cells, 150 nM, averages from three experiments) is reported as 89%.
“301157 (eG*e[5mC]*e[5mC]*eT*eG*dG*d[5mC]*dA*dA*dA*dA*dT*dT*d[5mC]*dT*eG*e[5mC]*eA*eG*eG; antisense) [compound 301157]” was tested, and the “% INHIB” value [1] was 37%.
For “270996 (antisense e[5mC]*e[5mC]*eT*e[5mC]*eT*d[5mC]*dA*dG*d[5mC]*dT*d[5mC]*dA*dG*dT*dA*eA*e[5mC]*e[5mC]*eA*eG) [compound 270996]”, the “% INHIB (inhibition of human apolipoprotein B mRNA levels)” value (averages from two experiments) was 0%.
With “270988 (antisense eG*eG*eG*eT*eT*dG*dA*dA*dG*d[5mC]*d[5mC]*dA*dT*dA*d[5mC]*eA*e[5mC]*e[5mC]*eT*e[5mC]) [compound 270988]” the “% INHIB (inhibition of human apolipoprotein B mRNA levels)” value (averages from two experiments) was 6%.
“301169 (antisense eA*e[5mC]*e[5mC]*eT*e[5mC]*d[5mC]*d[5mC]*dA*dG*dA*dA*dG*d[5mC]*d[5mC]*dT*eT*e[5mC]*e[5mC]*eA*eT) [compound 301169]” was tested, and the “% INHIB” value [1] was 22%.
